Assay results from patent US20230321067A1, “DOSING REGIMEN COMPRISING 3-(1-OXOISOINDOLIN-2-YL)PIPERIDINE-2,6-DIONE DERIVATIVES” (Novartis AG, priority 2020, published 2023).
“And” between values parts separate entries of the source, which are not always exact repeats. Equal entries are not always repeated. “Also recorded” adds a separate entry of the source.

Legend:
IKZF2 [1] = test: Single oral dose PD in cynomolgus monkey: IKZF2 expression in T cells from PBMCs by flow cytometry; format: in vivo
Procedure: The PK/PD relationship of I-57 was examined in cynomolgus monkeys after a single oral dose of 0.01, 0.1 or 1 mg/kg. I-57 plasma concentration and IKZF2 expression (as determined by flow cytometry) in FOXP3+ T cells from PBMCs were determined (FIG. 4 and FIG. 5).
Decreased (percentage change) IKZF2 positive […] cells, as determined by flow cytometry, were detectable at 4h post dose in the 1 mg/kg and 0.1 mg/kg groups, reaching maximum at 12-24 hrs post-dose and maintaining this maximum for 12-24 hrs.

IKZF2 [2] = biological target: T1, IKZF2 (Homo sapiens, UniProt Q96SW2+Q9UKS7); test: IKZF2 protein levels in total tumor-infiltrating lymphocytes by immunohistochemistry, hPBMC AdT model with MDA-MB231 xenografts (FIG. 8A, 8B); format: in vivo; design: endogenous in cells; host or cells: primary human PBMCs; settings: 24 h post the 14th daily dose
T1 sequence (Q9UKS7 whole entry): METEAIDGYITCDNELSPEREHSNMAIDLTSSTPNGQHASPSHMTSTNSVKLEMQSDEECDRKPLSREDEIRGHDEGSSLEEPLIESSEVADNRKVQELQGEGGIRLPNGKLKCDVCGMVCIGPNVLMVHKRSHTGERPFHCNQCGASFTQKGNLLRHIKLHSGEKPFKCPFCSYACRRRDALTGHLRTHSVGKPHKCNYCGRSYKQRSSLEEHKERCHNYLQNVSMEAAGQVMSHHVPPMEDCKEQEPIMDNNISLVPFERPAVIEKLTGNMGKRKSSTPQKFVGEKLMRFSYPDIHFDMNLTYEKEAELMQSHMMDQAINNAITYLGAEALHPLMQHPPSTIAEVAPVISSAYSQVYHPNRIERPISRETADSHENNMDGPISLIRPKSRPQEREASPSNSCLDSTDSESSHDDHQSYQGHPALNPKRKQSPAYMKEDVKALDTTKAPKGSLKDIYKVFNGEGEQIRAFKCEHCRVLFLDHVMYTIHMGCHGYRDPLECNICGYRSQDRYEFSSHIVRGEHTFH
T1 sequence (Q96SW2 whole entry): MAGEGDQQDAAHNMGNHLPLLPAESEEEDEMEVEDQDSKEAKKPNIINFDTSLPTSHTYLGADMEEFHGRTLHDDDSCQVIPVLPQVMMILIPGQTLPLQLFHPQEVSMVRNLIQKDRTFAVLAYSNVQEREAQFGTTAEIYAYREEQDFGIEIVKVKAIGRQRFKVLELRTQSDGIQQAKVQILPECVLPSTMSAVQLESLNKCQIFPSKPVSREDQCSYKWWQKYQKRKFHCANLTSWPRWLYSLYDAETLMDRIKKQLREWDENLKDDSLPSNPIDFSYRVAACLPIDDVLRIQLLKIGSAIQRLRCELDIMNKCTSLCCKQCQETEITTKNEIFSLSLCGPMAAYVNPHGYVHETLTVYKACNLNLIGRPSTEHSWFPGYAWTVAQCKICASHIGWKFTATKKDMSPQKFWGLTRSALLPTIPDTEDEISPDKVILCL
T1 sequence (Q16531 whole entry partner): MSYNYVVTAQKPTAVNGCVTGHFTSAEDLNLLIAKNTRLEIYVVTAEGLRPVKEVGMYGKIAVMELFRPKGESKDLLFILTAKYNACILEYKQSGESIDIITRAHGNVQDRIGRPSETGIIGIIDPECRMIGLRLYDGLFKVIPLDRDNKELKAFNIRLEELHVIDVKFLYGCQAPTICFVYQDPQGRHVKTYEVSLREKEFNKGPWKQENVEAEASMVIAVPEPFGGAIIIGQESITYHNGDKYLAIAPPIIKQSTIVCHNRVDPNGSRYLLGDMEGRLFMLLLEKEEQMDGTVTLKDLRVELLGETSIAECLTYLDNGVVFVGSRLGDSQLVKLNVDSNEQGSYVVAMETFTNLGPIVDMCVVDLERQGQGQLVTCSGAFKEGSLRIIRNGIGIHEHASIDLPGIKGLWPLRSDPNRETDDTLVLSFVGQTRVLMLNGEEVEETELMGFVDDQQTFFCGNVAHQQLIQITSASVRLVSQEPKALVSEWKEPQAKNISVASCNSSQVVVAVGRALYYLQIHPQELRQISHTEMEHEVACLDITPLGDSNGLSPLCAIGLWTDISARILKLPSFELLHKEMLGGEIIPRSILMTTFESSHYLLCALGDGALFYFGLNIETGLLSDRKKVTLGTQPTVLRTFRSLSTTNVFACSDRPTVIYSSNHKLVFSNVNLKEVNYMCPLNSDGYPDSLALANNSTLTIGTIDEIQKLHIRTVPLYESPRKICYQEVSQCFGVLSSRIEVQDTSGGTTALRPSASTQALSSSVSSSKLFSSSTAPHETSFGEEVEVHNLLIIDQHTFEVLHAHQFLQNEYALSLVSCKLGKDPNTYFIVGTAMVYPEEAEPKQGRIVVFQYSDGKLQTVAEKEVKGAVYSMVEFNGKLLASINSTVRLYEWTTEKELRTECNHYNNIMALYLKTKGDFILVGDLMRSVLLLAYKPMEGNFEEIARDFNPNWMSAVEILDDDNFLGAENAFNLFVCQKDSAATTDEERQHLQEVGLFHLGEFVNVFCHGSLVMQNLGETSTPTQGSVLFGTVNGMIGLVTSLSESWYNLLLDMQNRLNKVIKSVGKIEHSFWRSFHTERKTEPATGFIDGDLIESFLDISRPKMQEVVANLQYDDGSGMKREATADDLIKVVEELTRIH
Procedure: FIG. 6 is a pictorial representation of the multi-dose PK/PD study design in the human PBMC adoptive transfer mouse model harboring MDA-MB231 xenografts. Fourteen consecutive daily doses of Compound I-57 was administered at 0.3 mg/kg, 1 mg/kg, 3 mg/kg or 30 mg/kg.
FIG. 8A is a bar graph showing the change in the IKZF2 protein levels in total tumor-infiltrating lymphocytes by immunohistochemistry (IHC) at 24 h post the 14th daily dose of 1, 3 or 30 mg/kg Compound I-57.

peripheral T cells = test: Immunization response (KLH/Squalene) in cynomolgus monkey: anti-KLH IG and Ki67 T cells; format: in vivo
Procedure: The PK/PD relationship of I-57 was further examined in cynomolgus monkeys after repeated daily oral doses of 0.1 and 3 mg/kg. In this study, a cohort of animals were initially immunized with an antigen-adjuvant mixture (KLH/Squalene). The experiment was designed to assess the effect of I-57 exposure, and the resulting IKZF2 degradation, on immune response during immunization to test the hypothesis that IKZF2 degradation would result in increased proliferation of stimulated T-cells. In the experiment, daily I-57 oral treatment was initiated 5 days after immunization. An immunization booster dose was administered on day 15. I-57 plasma concentration and IKZF2 expression (as determined by flow cytometry) in FOXP3+ T cells from PBMCs were determined (FIG. 9A and FIG. 9B).
In order to measure the impact of I-57 treatment on the immune response following immunization, serum anti-KLH IG levels were measured longitudinally, and levels of T cell activation were measured in PBMCs by flow cytometry. […] In contrast, the proportion of proliferative peripheral T cells (denoted by Ki67 staining) was increased in the highest dose group (3 mg/kg) in the recall response phase, compared to immunization alone.

IKZF2 [3] = test: IKZF2 degradation in primary cynomolgus monkey PBMCs; format: cell-based; settings: primary monkey PBMCs in vitro
Description: (§1) Although the specific transcriptional targets of IKZF2 remain to be defined, IKZF2 binds to and represses transcription from the IL-2 promoter region (Baine 2013). […] Finally, an in vitro assay recapitulating hallmarks of T cell dysfunction/exhaustion, by sequential TCR stimulation of isolated primary human T cells, was used to test the hypothesis that […] would rescue the exhausted phenotype and enhance Teff cell activity. […] In addition to IKZF1, other known cereblon substrates including translation termination factor G1 to S phase transition 1 (GSPT1) are not degraded by I-57 (FIG. 1).
(§2) I-57 mediated degradation of IKZF2 was assessed in primary PBMCs obtained from rabbit, dog, pig, cynomolgus monkey, and human, and in primary splenocytes of mouse and rat. […] Species-specificity due to species specific alteration CRBN primary structure have previously been described with other compounds known to interact with the CRBN ubiquitin ligase complex to elicit protein specific degradation (Krönke et al, 2015).

[4] = In vivo non-clinical PK, mouse
Procedure: (§3) The in vivo non-clinical PK profile of I-57 was investigated in mouse, rat, dog and cynomolgus monkey using I-57 free base. […] After p.o. administration, the absorption of I-57 was rapid with peak blood concentration (Tmax) occurring between 1 and 4 hours. […] In high dose PK and toxicology studies with I-57 the exposures in mouse, rat and monkey increased with dose.
(§4) The binding to plasma protein of I-57 in vitro was moderate in all species, with an observed difference between rodents (73% in mouse, 76% in rat) and non-rodents (52% in dog and monkey, 54% in human). Blood-to-plasma ratios were in the range of 0.7-1.8 (human 1.1-1.3). […] Based on results with non-radiolabeled I-57 in the dog, a significant amount of unchanged I-57 was renally eliminated (˜20% of dose).

plasma protein = test: Plasma protein binding in vitro, monkey; format: in vitro ADME
Description: as §4

CYP2E1 = CYP2E1 (Homo sapiens, UniProt P05181); test: CYP inhibition: CYP2E1; format: in vitro ADME; settings: I-57 concentrations of up to 100 μM
CYP2E1, sequence (P05181 whole entry): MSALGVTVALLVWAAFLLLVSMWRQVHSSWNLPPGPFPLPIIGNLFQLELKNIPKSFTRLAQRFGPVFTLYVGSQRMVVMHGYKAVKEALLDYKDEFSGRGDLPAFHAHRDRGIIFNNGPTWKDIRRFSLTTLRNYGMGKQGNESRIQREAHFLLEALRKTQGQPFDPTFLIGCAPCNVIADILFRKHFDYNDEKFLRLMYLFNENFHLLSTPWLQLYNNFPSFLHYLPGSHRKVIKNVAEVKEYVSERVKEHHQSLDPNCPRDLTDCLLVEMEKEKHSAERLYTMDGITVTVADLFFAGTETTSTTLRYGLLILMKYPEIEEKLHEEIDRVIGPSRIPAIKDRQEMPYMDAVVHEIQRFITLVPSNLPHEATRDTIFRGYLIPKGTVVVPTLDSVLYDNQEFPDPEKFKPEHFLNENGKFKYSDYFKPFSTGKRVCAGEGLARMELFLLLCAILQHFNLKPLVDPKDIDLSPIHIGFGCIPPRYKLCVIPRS

IL2 mRNA = test: Upregulation of IL2 mRNA in TCR-stimulated Jurkat cells (FIG. 2B); format: cell-based; settings: increasing concentrations
Procedure: FIG. 2B is a graph showing the change upregulation of IL2 mRNA in TCR-stimulated Jurkat cells after IKZF2 degradation when cells were treated with increasing concentrations of Compound I-57.

[5] = In vivo non-clinical PK, rat
Procedure: as §3

IKZF2 [6] = biological target: T1, IKZF2; test: IKZF2 degradation in primary human PBMCs; format: cell-based; design: endogenous in cells; host or cells: primary human PBMCs
Description: as §1, §2

IKZF1 (Ikaros) = biological target: T2, IKZF1 (Ikaros) (Homo sapiens, UniProt Q13422); test: IKZF1 degradation in vitro (FIG. 1); format: cell-based
T2 construct: ProLabel; expressed in transfected cells; host or cells: HEK293T
T2 sequence (Q96SW2 whole entry partner): as the sequence (Q96SW2 whole entry) above
T2 sequence (Q16531 whole entry partner): as the sequence (Q16531 whole entry partner) above
T2 sequence (Q13422 whole entry): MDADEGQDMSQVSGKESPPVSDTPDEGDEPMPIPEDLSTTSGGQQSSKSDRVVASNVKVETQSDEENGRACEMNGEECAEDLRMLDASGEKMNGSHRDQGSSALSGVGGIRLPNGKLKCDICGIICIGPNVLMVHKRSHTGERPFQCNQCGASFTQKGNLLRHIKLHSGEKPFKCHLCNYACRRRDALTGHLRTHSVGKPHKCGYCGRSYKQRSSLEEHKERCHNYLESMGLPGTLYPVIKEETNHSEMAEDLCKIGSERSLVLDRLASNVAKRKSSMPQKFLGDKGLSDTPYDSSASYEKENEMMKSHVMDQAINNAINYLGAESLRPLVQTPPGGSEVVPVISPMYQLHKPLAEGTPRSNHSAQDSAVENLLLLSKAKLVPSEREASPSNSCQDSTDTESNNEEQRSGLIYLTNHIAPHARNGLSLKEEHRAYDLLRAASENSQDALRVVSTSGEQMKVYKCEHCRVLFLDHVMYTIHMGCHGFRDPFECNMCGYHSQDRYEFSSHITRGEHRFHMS
Description: as §1

CYP2C19 = CYP2C19 (Homo sapiens, UniProt P33261); test: Time-dependent CYP inhibition: CYP2C19; format: in vitro ADME; settings: I-57 concentrations of up to 100 μM
CYP2C19, sequence (P33261 whole entry): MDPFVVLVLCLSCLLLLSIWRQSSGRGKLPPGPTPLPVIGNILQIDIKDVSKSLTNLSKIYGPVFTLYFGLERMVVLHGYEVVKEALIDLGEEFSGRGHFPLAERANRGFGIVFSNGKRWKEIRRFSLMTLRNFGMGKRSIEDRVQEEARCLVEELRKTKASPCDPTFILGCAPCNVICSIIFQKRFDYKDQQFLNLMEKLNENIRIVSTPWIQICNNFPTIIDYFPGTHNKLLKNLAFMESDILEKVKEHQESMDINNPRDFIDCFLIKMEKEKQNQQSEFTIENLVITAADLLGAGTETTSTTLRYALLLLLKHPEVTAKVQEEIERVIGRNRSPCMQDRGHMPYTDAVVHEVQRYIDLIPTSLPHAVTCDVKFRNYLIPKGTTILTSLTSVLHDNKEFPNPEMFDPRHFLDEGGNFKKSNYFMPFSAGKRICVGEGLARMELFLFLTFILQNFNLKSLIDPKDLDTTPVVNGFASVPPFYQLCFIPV

IKZF4 = biological target: T3, IKZF4 (Homo sapiens, UniProt Q96SW2+Q9H2S9); test: IKZF4 degradation in vitro (FIG. 1); format: cell-based; settings: relative to IKZF2
T3 construct: prolabel (ProLabel enzyme-fragment tag); expressed in transfected cells; host or cells: HEK293T
T3 sequence (Q9H2S9 whole entry, the tested form may be a part): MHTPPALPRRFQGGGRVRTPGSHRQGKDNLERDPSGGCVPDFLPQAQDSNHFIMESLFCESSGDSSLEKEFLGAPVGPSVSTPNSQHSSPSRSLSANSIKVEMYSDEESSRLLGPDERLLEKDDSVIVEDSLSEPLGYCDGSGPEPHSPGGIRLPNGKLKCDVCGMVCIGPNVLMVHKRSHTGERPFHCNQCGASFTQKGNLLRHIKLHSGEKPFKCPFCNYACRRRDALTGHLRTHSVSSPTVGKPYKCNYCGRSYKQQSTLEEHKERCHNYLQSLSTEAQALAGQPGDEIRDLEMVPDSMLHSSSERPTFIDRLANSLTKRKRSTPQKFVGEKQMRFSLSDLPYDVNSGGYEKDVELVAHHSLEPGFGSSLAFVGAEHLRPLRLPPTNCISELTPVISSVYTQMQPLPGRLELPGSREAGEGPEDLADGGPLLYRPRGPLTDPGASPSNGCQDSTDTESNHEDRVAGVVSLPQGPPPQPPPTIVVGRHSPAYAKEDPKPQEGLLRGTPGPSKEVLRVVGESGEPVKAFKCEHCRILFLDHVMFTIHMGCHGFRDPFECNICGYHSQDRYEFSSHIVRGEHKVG
T3 sequence (Q96SW2 whole entry, the tested form may be a part): as the sequence (Q96SW2 whole entry) above
T3 sequence (Q16531 whole entry partner, the tested form may be a part): as the sequence (Q16531 whole entry partner) above
Description: as §1

In the case of O=C1CCC(N2Cc3cc(C4CCN(Cc5ccccc5)CC4)ccc3C2=O)C(=O)N1 (stereo not shown) [Compound I-57, 3-(5-(1-benzylpiperidin-4-yl)-1-oxoisoindolin-2-yl)piperidine-2,6-dione], the “duration for which maximum decrease of IKZF2 positive cells was maintained” value (IKZF2 [1]; single oral dose) was 12 to 24 h, the “recovery of IKZF2 positive cells” value (IKZF2 [1]; single oral dose 1 mg/kg) was “total recovery was not achieved by day 7 post-dose” and the “time at which decreased IKZF2 positive cells were detectable” value (IKZF2 [1]; single oral dose, 1 mg/kg and 0.1 mg/kg groups, flow cytometry) was 4 h. The “time to maximum decrease of IKZF2 positive cells” value (IKZF2 [1]; single oral dose, post-dose) was 12 to 24 h, the “maximal level of IKZF2 degradation in total tumor-infiltrating lymphocytes (IHC)” value (IKZF2 [2]; 30 mg/kg) was “approximately 85%” and the “reduction in IKZF2 levels in total tumor-infiltrating lymphocytes (IHC)” value (IKZF2 [2]; 1, 3 and 30 mg/kg doses) was “Robust reduction”. For the same molecule, the “proportion of proliferative peripheral T cells (Ki67 staining)” value (peripheral T cells; 3 mg/kg, recall response phase, compared to immunization alone) was “increased”, the “Anti-IgG titers elicited by the immunization (serum anti-KLH IG)” value (peripheral T cells; KLH/Squalene immunization, daily I-57) was “not further enhanced” and the “degradation of IKZF2” value (IKZF2 [3]) was “potent degradation; also recorded: Degradation was observed”. For the same molecule, the “dose proportionality of AUC” value ([4]; between 3 mg/kg and 100 mg/kg) was “roughly dose proportional”, the bioavailability ([4]; blood, po) was 53% and the Kp ([4]; brain, read-out: brain/plasma ratio) was 0.07. The “binding to plasma protein” value (plasma protein) was 52%, the “inhibition of CYP2E1” value (CYP2E1) was “very little and no inhibition” and the “IL-2 mRNA expression” value (IL2 mRNA) was “expressed more IL-2 mRNA in a dose-dependent manner”. For the same molecule, the “dose proportionality of AUC” value ([5]; between 3 mg/kg and 300 mg/kg) was “roughly dose proportional”, the bioavailability ([5]; blood, po) was 90% and the DC50 (IKZF2 [6]; human PBMC, read-out: AC50 for IKZF2 degradation (converted)) was ~4 nM and ~4.07 nM. The “degradation of IKZF2” value (IKZF2 [6]; primary human PBMCs in vitro) was “potent degradation; also recorded: Degradation was observed”, the “degradation of IKZF1” value (IKZF1 (Ikaros)) was “not degraded” and the “time-dependent inhibition of CYP2C19” value (CYP2C19) was “no apparent time-dependent inhibition”. The “degradation of IKZF4” value (IKZF4) was “less potency than IKZF2”.
